Assay results as given in US5441983A, “Treatment of infection by enveloped virus with calix(N)arene compounds” (Genelabs Incorporated, priority 1992, dated 1995).
In brackets after ≈: the same amount, converted by molar mass.

Experiments:
HSV-2 333 = assay: Inhibition of viral yield, wild type HSV-2 333; details: Human alphaherpesvirus 2, HeLa, read-out: ID90
Description: (§13) These compounds tested were the nucleoside analogs acyclovir (ACV), ganciclovir (DHPG), phosphonoformate (PFA), and phosphomethoxyethyladenine (PMEA). Inhibition of viral yield was determined, as above, by infecting Hela cells in the presence of wild type or drug-resistant strains of HSV-1 or HSV-2, and serial dilutions of a selected anti-viral compound, and infecting Vero cells with serial dilutions of the Hela cell lysate, as above.
(§14) The KOS (HSV-1) and 333 (HSV-2) are wild type viruses; the KOS(PMEA)' and KOS(PFA)' are drug-resistant HSV-1 strains having a DNA polymerase mutation. The 333(DHPG) strain is a drug-resistantHSV-2 strain having a thymidine kinase mutation.
(§15) The following strains of HSV-1 and HSV-2 virus were used: KOS, a wild type HSV-1 virus; KOS (PMEA) and KOS (PFA), both drug-resistant HSV-1 viruses having a DNA polymerase mutation; 333, a wild type HSV-2 HSV-2 virus, and 333 (DHPG), a drug-resistant HSV-2 virus having a thymidine kinase mutation.
(§16) After growth at 37° C. for 24 hours in 2 ml of RPMI-1640 containing 2% FCS and penicillin and streptomycin (P/S), the cells were frozen at -70° C. until the time for titration. The cells were freeze/thawed 3 times to release virus from the cells, serially diluted 10 fold, and the serial dilutions were added to Vero cells in culture. After 2 hours incubation at 37° C. the virus was removed and 0.5 ml methycellulose (4K cps) in RPMI-1640 and 2% FCS+P/S was added. Two days later, the medium was removed. The cells were stained in 0.8% crystal violet in 50% ethanol. The plaques formed were counted and the titer was calculated from the fold of dilutions. From the drug dose response, the concentration of each drug required to effect a 90% inhibition of virus yield, the IC90 concentration was determined.

HSV-1 KOS = assay: Inhibition of viral yield, wild type HSV-1 KOS; details: Human alphaherpesvirus 1, HeLa, read-out: ID90
Description: as §13, §14, §15, §16

HSV-1 KOS (PFA)' = assay: Inhibition of viral yield, drug-resistant HSV-1 KOS(PFA)'; details: Human alphaherpesvirus 1, HeLa, read-out: ID90
Description: as §13, §14, §15, §16

HSV-2 333 (DHPG)' = assay: Inhibition of viral yield, drug-resistant HSV-2 333(DHPG)'; details: Human alphaherpesvirus 2, HeLa, read-out: ID90
Description: as §13, §14, §15, §16

HIV-HXB = assay: Inhibition of syncytia formation, HIV-HXB (HTLV-IIIB); details: Human immunodeficiency virus 1, 18 h, read-out: HIV-HXB ED100, complete inhibition of syncytia formation
HSV-1 or HSV-2 = assay: Inhibition of HSV cytopathic effect (CPE) in Vero cells; details: 10-20 μg/ml
Description: In the method reported in Example 5, Vero cells were infected with HSV-1 or HSV-2 and allowed to grow in culture until cytopathic effects were clearly visible. In the absence of infection, the cells form an even monolayer of fibro-blastlike cells. With HSV infection, a cytopathic effect characterized by round cells in suspension is clearly evident after 24 hours, followed by clumping and lysis of infected cells after 24-72 hours.
In the drug inhibition study reported in Example 5, cells were exposed to HSV-1 or HSV-2 virus and, at the same time, to a selected aryl macrocyclic compound, at a final drug concentration of 10 μg/ml. Twenty-four hours later the cells were examined for cytopathic effect.
Vero cells were maintained in RPMI-1640 medium supplemented with 5% fetal calf serum, 100 Units of penicillin per ml and 100 μg of streptomycin per ml at 37° C. in a humidified incubator containing 7% CO2. The HSV strains HSV-1 (Kos-1) and HSV-2 (333) were used.
1×10^5 Vero cells were plated in each well of a 96 well microtitre plate in 0.2 ml RPMI-1640 medium containing 5% FCS and 0.1% methyl cellulose (15 cps). After overnight incubation, and cell doubling, the medium was aspirated and replaced with 100 .1 of the same medium containing 2% FCS, and 50.1 control or drug solution to a final drug concentration of 10 μg/ml and 50 μl virus, containing about 3 PFU/cell, i.e., 6 x 10^s PFU/well, of HSV-1 or HSV-2.
The cells were cultured for 24 hours at 37° C. at which time cytopathic effects are clearly visible. In the absence of viral infection, the cells form an even monolayer of fibroblast cells. With viral infection, the cells form a suspension of round cells, followed by cell clumping, whose appearance is easily distinguishable from normal fibroblast cells. If no detectable cytopathic effect was produced, the test was repeated with 10 μg/ml. A parallel set of cells without virus inoculation were done as a control for cytotoxicity to Vero cells.

HSV-2 = assay: Plaque reduction assay, HSV-2, Vero cells; format: cell-based, HSV-2 (333); details: Human alphaherpesvirus 2, Vero
Description: (§1) used in Table 3 were further tested for activity against HSV infection in
(§2) a plaque reduction assay, as detailed in Example 6. Here Vero cells, after
(§3) overnight incubation, were exposed to serial dilutions of KY compound,
(§4) from 0.625-10 μg/ml, and HSV-1 or HSV-2 virus for two hours. After
(§5) washing to remove drug and extracellular virus, the cells were further
(§6) incubated for 2 days, then stained and counted for plaque formation.
(§7) Percent inhibition was determined by dividing plaques produced by total
(§8) number of plaques in infected, untreated controls. From the concentration
(§9) effect curve of plaque inhibition (expressed as percent of control), the
(§10) concentration of compound required to produce 50% plaque reduction,
(§11) IC50, was determined. The IC50 values for infection by HSV-1 and
(§12) HSV-2 infection is given in the right-hand columns in Table 3. With

RSV = assay: Inhibition of RSV cytopathic effect in HEp2 cells; format: cell-based; details: human respiratory syncytial virus, HEp-2; HEp2 cells, cytopathic effect; read-out: ED50 RSV
Influenza A (Taiwan) = assay: Inhibition of influenza A cytopathic effect (clumping) in MDCK cells; format: cell-based, Influenza A virus (A/Taiwan strain); details: Influenza A virus, 24 h, 50% reduction in percent clumped cells, read-out: ED50 Influenza A (Taiwan)
Description: With virus infection, a cytopathic effect characterized by cell clumping is observed. For each compound tested, drug concentrations of 0.1, 1, 10, 25, and 100 μg/ml were added to cultured cells at the time of virus infection, as detailed in Examples 9 and 11. […] The inhibition of clumping was plotted as a function of drug concentration, to determine the dose effective to produce a 50% reduction in the percent clumped cells, measured with respect to control (no drug treatment).
Assays to assess the antiviral activity of KY- and Y-compounds in tissue culture were performed in 96-well flat-bottom tissue culture plates (Falcon 307), using conditions similar to those used in the cytotoxicity assays described above. In these assays, compound was tested in quadruplicate by serially diluting the compound in 2% FCS-MEM using serial two-fold dilutions (0.05 ml/well). A 0.05 ml volume of the appropriate virus containing approximately 100 median tissue culture infectious doses (TCID50) was then added to all wells except those set aside as antiviral and tissue control wells. Next, approximately 3×10^3 HEp2 cells (0.1 ml) were added to each well. Control wells containing antiviral and no virus (antiviral control), containing virus but no antiviral (virus control), or containing medium without virus or antiviral (tissue control), were included in each test. The challenge virus was then back titrated. All assay plates were incubated at 35° C. for 5 to 7 days in a 5% CO2 incubator.
The anti-influenza A activity of KY compounds was evaluated as described in Example 9, except that MDCK cells (kidney cell line) was used for infection in vitro by influenza virus (strain A/Taiwan).

HSV-1 = assay: Plaque reduction assay, HSV-1, Vero cells; format: cell-based, HSV-1 (Kos-1); details: Human alphaherpesvirus 1, Vero, plaque reduction, Vero cells
Description: as §1, §2, §3, §4, §5, §6, §7, §8, §9, §10, §11, §12

HIV-RF-II = assay: Inhibition of syncytia formation, HIV-RF-II; details: Human immunodeficiency virus 1, 18 h, read-out: HIV-RF-II ED100, complete inhibition of syncytia formation
Description: Briefly, cells chronically infected with HTLV-IIIB or RF-II HIV strains were incubated in the presence of serial dilutions of the selected KY compound, then further cocultured with indicator cells. The extent of syncytia formation was scored under phase microscopy.
Representative calix(n)arene compounds from Table 2 were tested for inhibition of cytopathic effects in cells infected with one of two HTLV-III strains, HTLV-IIIB and RF-II strains, as described in Example 12, and in the subsection above.
Human CD4^+ indicator cells (VB) and chronically infected H9 cells were maintained in RPMI-1640 medium supplemented with 5% fetal calf serum, 100 Units of penicillin per ml and 100 μg of streptomycin per ml at 37° C. in a humidified incubator containing 7% CO2.
For the fusion assay, serial dilutions between 1:2 and 1:2^8 of a selected KY compound, 1 mg/ml in PBS were made in a 96 well round bottom plate. The diluted KY compound was transferred to a 96 well flat-bottom plate. To each well was added 25 μg chronically infected H9 cells (at 2×10^6, cells/ml), or cells chronically infected with RF-II strain HIV, followed by incubation at 37° C. for 45 minutes. To each well was then added 25 μl VB cells (about 5×10^4 cells), and the cells and virus isolates were cocultured for 18 hours in a humid 5% CO2 atmosphere.

[1] = system: panel of human cell lines; assay: Cytotoxicity in proliferating human cell lines; format: cell-based; details: 72 h; panel of human cell lines, 3 days; read-out: IC50 drug concentration (50% cell death)
Description: In addition, a large number of representative aryl macrocyclic compounds (including those shown in Tables 1 and 2) were examined for toxicity in cell culture, using a panel of human cell lines, as detailed in Example 4. Briefly, the selected KY- or Y- compound was added to cell cultures at a final concentration of 5, 10, 25, 50, or 100 μg/ml. Three days later the cells were washed to remove drug, and stained with a vital stain, to determine the percentage of dead cells in each culture. The IC50 drug concentration, i.e., value concentration of drug which produced 50% cell death, was 50 μg/ml for KY-143, KY-151, and KY-163, and 100 μg/ml or greater for all of the other KY compounds tested. For KY-1, which has a molecular weight of 1404 daltons, a drug concentration of 100 μg/ml is equivalent to about […].
A panel of human cell lines was used to check the toxicity of the drugs, including: KB (nasopharyngeal carcinoma), HeLaS3 (cervical epithelial carcinoma), PLC (hepatocarcinoma), HepG2 (human hepatocarcinoma) HepG2T14 (hepatocarcinoma transfected with HBV), WI38 (normal human lung fibroblast), BT549 (breast cancer), SW480 ([…]), and A549 (lung cancer).
Three days later, the medium was removed and the cells were stained with Commassie Blue in 40% methanol and 7% acetic acid. The results are discussed in Section II above.

Structure (SMILES)	IC90 (HSV-2 333) [µM]	IC90 (HSV-1 KOS) [µM]	IC90 (HSV-1 KOS (PFA)') [µM]	IC90 (HSV-2 333 (DHPG)') [µM]	EC100 (HIV-HXB) [µg/mL]	protection from CPE, in words (HSV-1 or HSV-2)	IC50 (HSV-2) [µg/mL]	EC50 (RSV) [µg/mL]	EC50 (Influenza A (Taiwan)) [µg/mL]	IC50 (HSV-1) [µg/mL]	EC100 (HIV-RF-II) [µg/mL]	IC50 [1] [µg/mL]
Nc1nc(O)c2ncn(COC(CO)CO)c2n1 [DHPG, ganciclovir]	2	2	1	215								
O=S(=O)(O)c1cc2cc(S(=O)(=O)O)c3c(O)c2c(O)c1C(C(O)CO)c1c(S(=O)(=O)O)cc2cc(S(=O)(=O)O)c(c(O)c2c1O)C(C(O)CO)c1c(S(=O)(=O)O)cc2cc(S(=O)(=O)O)c(c(O)c2c1O)C(C(O)CO)c1c(S(=O)(=O)O)cc2cc(S(=O)(=O)O)c(c(O)c2c1O)C3C(O)CO (stereo not shown) [KY-48]					250	low activity						
C=CC1c2c(S(=O)(=O)O)cc3cc(S(=O)(=O)O)c(c(O)c3c2O)C(C=C)c2c(S(=O)(=O)O)cc3cc(S(=O)(=O)O)c(c(O)c3c2O)C(C=C)c2c(S(=O)(=O)O)cc3cc(S(=O)(=O)O)c(c(O)c3c2O)C(C=C)c2c(S(=O)(=O)O)cc3cc(S(=O)(=O)O)c1c(O)c3c2O (stereo not shown) [KY-97]					32		> 10	0.5 (≈ 0.349 µM)	5 (≈ 3.49 µM)	> 10		
CC(=O)C1c2c(S(=O)(=O)O)cc3cc(S(=O)(=O)O)c(c(O)c3c2O)C(C(C)=O)c2c(S(=O)(=O)O)cc3cc(S(=O)(=O)O)c(c(O)c3c2O)C(C(C)=O)c2c(S(=O)(=O)O)cc3cc(S(=O)(=O)O)c(c(O)c3c2O)C(C(C)=O)c2c(S(=O)(=O)O)cc3cc(S(=O)(=O)O)c1c(O)c3c2O (stereo not shown) [KY-110]					63	low activity	> 10	4 (≈ 2.67 µM)	> 250	> 10		
O=S(O)c1cc2cc(S(=O)O)c3c(O)c2c(O)c1Cc1c(S(=O)O)cc2cc(S(=O)O)c(c(O)c2c1O)Cc1c(S(=O)O)cc2cc(S(=O)O)c(c(O)c2c1O)Cc1c(S(=O)O)cc2cc(S(=O)O)c(c(O)c2c1O)C3 [KY-123]					16		1.5 (≈ 1.25 µM)	1 (≈ 0.832 µM)	31.3 (≈ 26.1 µM)	1.5 (≈ 1.25 µM)	16	
O=S(=O)(O)c1c2c(O)c3c(O)c(c(S(=O)(=O)O)c(O)c3c1O)Cc1c(S(=O)(=O)O)c(O)c3c(O)c(S(=O)(=O)O)c(c(O)c3c1O)Cc1c(S(=O)(=O)O)c(O)c3c(O)c(S(=O)(=O)O)c(c(O)c3c1O)Cc1c(S(=O)(=O)O)c(O)c3c(O)c(S(=O)(=O)O)c(c(O)c3c1O)C2 [KY-143]					250	low activity	> 10			> 10	125	50 (≈ 34.3 µM)
CNS(=O)(=O)c1cc2cc(S(=O)(=O)NC)c3c(O)c2c(O)c1Cc1c(S(=O)(=O)NC)cc2cc(S(=O)(=O)NC)c(c(O)c2c1O)Cc1c(S(=O)(=O)NC)cc2cc(S(=O)(=O)NC)c(c(O)c2c1O)Cc1c(S(=O)(=O)NC)cc2cc(S(=O)(=O)NC)c(c(O)c2c1O)C3 [KY-147]					250	low activity	> 10			> 10	250	
